In patent publication US10808007B2, “Desacetoxytubulysin H and analogs thereof” (WILLIAM MARSH RICE UNIVERSITY, priority 2015, dated 2020):
Read-outs that look alike come from different tables or passages of the source.

Columns and labels:
Assay type in all cases: cell-based
[1] = tested on: breast cancer cell lines; assay: NCI-60 cytotoxicity, breast cancer; details: Homo sapiens
Procedure: (§1) A number of the synthesized compounds (i.e. Tb1-Tb23) were evaluated for their activity against a variety of cancer cell lines, namely the NCI-60 human cancer cell line panel representing leukemia, melanoma, lung, colon, brain, ovary, breast, prostate and kidney types of cancer through the In Vitro Cell Line Screening Project (IVCLSP) of the National Cancer Institute (NCI), and a summary of the results is shown in Table 1. […] As there was interest in the activity in certain other cell lines, these and the remaining compounds (Tb1-Tb41, PTb-D42 and PTb-D43) were subjected to further testing against MES SA (uterine sarcoma cells), MES SA DX (multidrug resistant uterine sarcoma cells), and HEK 293T (human embryonic kidney cells). […] Tubulysins are known to be substrates for Pgp pumps (Xiangming, et al., 2013; Kaur, et al., 2006; Szakacs, et al., 2006) as supported by the observed low activities of all tubulysins tested except Tb28, Tb32 and Tb33.

[2] = tested on: melanoma cell lines; assay: NCI-60 cytotoxicity, melanoma; details: Homo sapiens
Procedure: as §1

[3] = tested on: ovarian cancer cell lines; assay: NCI-60 cytotoxicity, ovarian cancer; details: Homo sapiens
Procedure: as §1

[4] = tested on: renal cancer cell lines; assay: NCI-60 cytotoxicity, renal cancer; details: Homo sapiens
Procedure: as §1

[5] = tested on: leukemia cancer cell lines; assay: NCI-60 cytotoxicity, leukemia; details: Homo sapiens
Procedure: as §1

[6] = tested on: non-small cell lung cancer cell lines; assay: NCI-60 cytotoxicity, non-small cell lung cancer; details: Homo sapiens
Procedure: as §1

[7] = tested on: prostate cancer cell lines; assay: NCI-60 cytotoxicity, prostate cancer; details: Homo sapiens
Procedure: as §1

[8] = tested on: MES SA DX (multidrug resistant uterine sarcoma cells); assay: Cytotoxic assay (CellTiter-Glo, 72 h), MES SA DX; details: Homo sapiens
[9] = tested on: colon cancer cell lines; assay: NCI-60 cytotoxicity, colon cancer; details: Homo sapiens
Procedure: as §1

[10] = tested on: CNS cancer cell lines; assay: NCI-60 cytotoxicity, CNS cancer; details: Homo sapiens
Procedure: as §1

[11] = tested on: HEK 293T (human embryonic kidney cells); assay: Cytotoxic assay (CellTiter-Glo, 72 h), HEK 293T; details: Homo sapiens, HEK-293T, read-out: IC50 HEK 293T
[12] = tested on: MES SA (uterine sarcoma cells); assay: Cytotoxic assay (CellTiter-Glo, 72 h), MES SA; details: Homo sapiens, MES-SA, read-out: IC50 MES SA

Structure (SMILES)	GI50 ([2]; NCI-60, selected value)	GI50 ([7]; NCI-60, selected value)	IC50 [8]	GI50 ([9]; NCI-60, selected value)	GI50 ([10]; NCI-60, selected value)	IC50 ([11]; 72 h)	IC50 ([12]; 72 h)	GI50 ([1]; NCI-60, selected value)	GI50 ([3]; NCI-60, selected value)	GI50 ([4]; NCI-60, selected value)	GI50 ([5]; NCI-60, selected value)	GI50 ([6]; NCI-60, selected value)	also measured
CCC(C)[C@H](NC(=O)[C@H]1CCCCN1C)C(=O)N(C)[C@H](C[C@@H](OC(C)=O)c1nc(C(=O)NC23CC(C(=O)OC)(C2)C3)cs1)C(C)C (stereo in doubt) [Tb14, Methyl 3-(2-((1R,3R)-1-acetoxy-3-((2S,3S)—N,3-dimethyl-2-((R)-1-methylpiperidine-2-carboxamido)-pentanamido)-4-methylpentyl)thiazole-4-carboxamido)bicyclo[1.1.1]pentane-1-carboxylate]	0.137 nM	0.449 nM	> 50 nM	0.433 nM	0.382 nM	0.11 nM	0.35 nM	–	–	–	–	–	GI50 ([1]; NCI-60): 0.267 nM; GI50 ([2]; NCI-60): 0.137 nM; GI50 ([3]; NCI-60): 0.256 nM; GI50 ([4]; NCI-60): 0.364 nM; GI50 ([5]; NCI-60): 0.064 nM; GI50 ([6]; NCI-60): 0.156 nM; GI50 ([7]; NCI-60): 0.449 nM; GI50 ([9]; NCI-60): 0.433 nM; GI50 ([10]; NCI-60): 0.382 nM; IC50 [11]: 0.11 nM; IC50 [12]: 0.35 nM
CC[C@H](C)[C@H](NC(=O)[C@H]1CCCCN1C)C(=O)N(C)[C@H](C[C@@H](OC(C)=O)c1nc(C(=O)N[C@@H](Cc2ccccc2)C[C@H](C)C(=O)O)cs1)C(C)C [Tb1, N^14-desacetoxytubulysin H]	0.074 nM	0.339 nM	> 10 nM	0.269 nM	0.305 nM	0.02 nM	0.34 nM	0.147 nM	0.234 nM	0.548 nM	0.264 nM	0.347 nM	IC50 [11]: 0.02 nM; IC50 [12]: 0.34 nM
CC[C@H](C)[C@H](NC(=O)[C@H]1CCCCN1C)C(=O)N(C)[C@H](C[C@@H](OC(C)=O)c1nc(C(=O)N[C@@H](Cc2ccccc2)C[C@H](C)C(=O)OC)cs1)C(C)C [Tb2, Methyl (2S,4R)-4-(2-((1R,3R)-1-acetoxy-3-((2S,3S)—N,3-dimethyl-2-((R)-1-methylpiperidine-2-carbo-xamido)pentanamido)-4-methylpentyl)thiazole-4-carboxamido)-2-methyl-5-phenylpentanoate]	0.03 nM	0.162 nM	> 10 nM	0.158 nM	0.219 nM	0.03 nM	0.2 nM	0.043 nM	0.042 nM	0.218 nM	0.078 nM	0.28 nM	IC50 [11]: 0.03 nM; IC50 [12]: 0.2 nM
CC[C@H](C)[C@H](NC(=O)c1ccccn1)C(=O)N(C)[C@H](C[C@@H](OC(C)=O)c1nc(C(=O)N[C@@H](Cc2ccccc2)C[C@H](C)C(=O)OC)cs1)C(C)C [Tb3, (2S,4R)-Methyl 4-(2-((1R,3R)-1-acetoxy-3-((2S,3S)—N,3-dimethyl-2-(picolinamido)pentanamido)-4-methylpentyl)thi-azole-4-carboxamido)-2-methyl-5-phenylpentanoate]	> 1000 nM	> 1000 nM	> 50 nM	> 1000 nM	> 1000 nM	> 50 nM	> 50 nM	> 1000 nM	> 1000 nM	> 1000 nM	> 1000 nM	> 1000 nM	–
CC[C@H](C)[C@H](NC(=O)N[C@@H](C)c1ccccc1)C(=O)N(C)[C@H](C[C@@H](OC(C)=O)c1nc(C(=O)N[C@@H](Cc2ccccc2)C[C@H](C)C(=O)OC)cs1)C(C)C [Tb4, (2S,4R)-Methyl 4-(2-((2S,6S,9R,1 IR)-6-((S)-sec-butyl)-9-isopropyl-8-methyl-4,7,13-trioxo-2-phenyl-12-oxa-3,5,8-tri-azatetradecan-11-yl)thiazole-4-carboxamido)-2-methyl-5-phenylpentanoate]	> 1000 nM	> 1000 nM	> 50 nM	> 1000 nM	> 1000 nM	> 50 nM	> 50 nM	> 1000 nM	> 1000 nM	> 1000 nM	> 1000 nM	> 1000 nM	–
CC[C@H](C)[C@H](NC(=O)Nc1ccccc1)C(=O)N(C)[C@H](C[C@@H](OC(C)=O)c1nc(C(=O)N[C@@H](Cc2ccccc2)C[C@H](C)C(=O)OC)cs1)C(C)C [Tb5, (2S,4R)-Methyl 4-(2-((1R,3R)-1-acetoxy-3-((2S,3S)—N,3-dimethyl-2-(3-phenylureido)pentanamido)-4-methylpentyl)thiazole-4-carboxamido)-2-methyl-5-phenylpentanoate]	416 nM	> 1000 nM	> 50 nM	> 1000 nM	> 1000 nM	> 50 nM	> 50 nM	514 nM	> 1000 nM	> 1000 nM	> 1000 nM	> 1000 nM	–
CC[C@H](C)[C@H](NC(=O)NC(C)(C)C)C(=O)N(C)[C@H](C[C@@H](OC(C)=O)c1nc(C(=O)N[C@@H](Cc2ccccc2)C[C@H](C)C(=O)OC)cs1)C(C)C [Tb6, Methyl (2S,4R)-4-(2-((6S,9R,1R)-6-((S)-sec-butyl)-9-isopropyl-2,2,8-trimethyl-4,7,13-trioxo-12-oxa-3,5,8-triazatetradecan-11-yl)thiazole-4-carboxamido)-2-methyl-5-phenylpentanoate]	83.9 nM	689 nM	> 50 nM	339 nM	439 nM	> 50 nM	> 50 nM	71.4 nM	127 nM	154 nM	286 nM	164 nM	–
CC[C@H](C)[C@H](NC(=O)C12CC(NC(C)=O)(C1)C2)C(=O)N(C)[C@H](C[C@@H](OC(C)=O)c1nc(C(=O)N[C@@H](Cc2ccccc2)C[C@H](C)C(=O)OC)cs1)C(C)C [Tb7, Methyl (2S,4R)-4-(2-((1R,3R)-3-((2S,3S)-2-(3-acetamidobicyclo[1.1.1]pentane-1-carboxamido)-N,3-dimethylpentanamido)-1-acetoxy-4-methylpentyl)thiazole-4-carboxamido)-2-methyl-5-phenyl-pentanoate]	31.4 nM	105 nM	> 50 nM	61.3 nM	219 nM	> 50 nM	> 50 nM	42.8 nM	48.5 nM	134 nM	17.6 nM	57.8 nM	–
CC[C@H](C)[C@H](NC(=O)C12CC(NC)(C1)C2)C(=O)N(C)[C@H](C[C@@H](OC(C)=O)c1nc(C(=O)N[C@@H](Cc2ccccc2)C[C@H](C)C(=O)OC)cs1)C(C)C [Tb8, Methyl(2S,4R)-4-(2-((1R,3R)-1-acetoxy-3-((2S,3S)—N,3-dimethyl-2-(3-(methylamino)-bicyclo[1.1.1]pentane-1-carboxamido)pentanamido)-4-methylpentyl)thiazole-4-carboxamido)-2-methyl, 5-phenyl-pentanoate-phenylpentanoate]	33.3 nM	125 nM	> 50 nM	121 nM	105 nM	> 50 nM	> 50 nM	52.1 nM	75 nM	164 nM	9.62 nM	96.7 nM	–
CC[C@H](C)[C@H](NC(=O)C12C3C4C1C1C2C3C41NC(C)=O)C(=O)N(C)[C@H](C[C@@H](OC(C)=O)c1nc(C(=O)N[C@@H](Cc2ccccc2)C[C@H](C)C(=O)OC)cs1)C(C)C (stereo partly drawn) [Tb9, Methyl(2S,4R)-4-(2-((R,3R)-3-((2S,3S)-2-(4-acetamidocubane-1-carboxamido)-N,3-dimethylpentan amido)-1-acetoxy-4-methylpentyl)thiazole-4-carboxamido)-2-methyl-5-phenylpentanoate]	46.6 nM	459 nM	> 50 nM	331 nM	246 nM	> 50 nM	> 50 nM	53.2 nM	61 nM	238 nM	24.2 nM	83.6 nM	–
CC[C@H](C)[C@H](NC(=O)C12C3C4C1C1C2C3C41NC)C(=O)N(C)[C@H](C[C@@H](OC(C)=O)c1nc(C(=O)N[C@@H](Cc2ccccc2)C[C@H](C)C(=O)OC)cs1)C(C)C (stereo partly drawn) [Tb10, Methyl(2S,4R)-4-(2-((1R,3R)-1-acetoxy-3-((2S,3S)—N,3-dimethyl-2-(4-(methylamino)cubane-1-carboxamido)pentanamido)-4-methylpentyl)thiazole-4-carboxamido)-2-methyl-5-phenylpentanoate]	49.5 nM	500 nM	> 50 nM	355 nM	271 nM	> 50 nM	> 50 nM	66.4 nM	92.6 nM	413 nM	61.3 nM	60.2 nM	–
